Laboratory results published in patent publication US9580430B2, “9H-pyrimido[4,5-B]indoles and related analogs as BET bromodomain inhibitors” (THE REGENTS OF THE UNIVERSITY OF MICHIGAN, priority 2014, dated 2017).

Columns and labels:
recombinant BRD4 BD1 = target: T1, recombinant BRD4 BD1 (Homo sapiens, UniProt O60885); assay: Competitive fluorescence-polarization (FP) binding assay, BRD4 BD1; conditions: competitive FP assay; protein 10 nM, probe […]; read-out: IC50 (nM) BRD4 BD1; also: probe 1.5 nM
T1 construct: for recombinant BRD4 BD1 and BRD4 BD2 proteins
Procedure, shortened: (§1)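 FP competition with FAM-labelled probe (ZBA248 or BRD-1F) against preincubated protein/probe complex; BD1 at 10 nM and BD2 at 6 nM final, in 100 mM potassium phosphate pH 6.5, 0.01% Triton X-100. 30 min, room temperature. IC50 by nonlinear regression; Ki also derived, using probe Kd from protein saturation.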

recombinant BRD4 BD2 = target: T2, recombinant BRD4 BD2 (Homo sapiens, UniProt O60885); assay: Competitive fluorescence-polarization (FP) binding assay, BRD4 BD2; conditions: competitive FP assay; protein 6 nM, probe […]; read-out: IC50 (nM) BRD4 BD2; also: probe 1.5 nM
T2 construct: for recombinant BRD4 BD1 and BRD4 BD2 proteins
Procedure, shortened: as §1

MDA-MB-436 = assay: Cell growth inhibition, MDA-MB-436 breast cancer cells (WST-8); type: cell-based; conditions: Homo sapiens, MDA-MB-436, 96 h; 4 days; read-out: IC50 (nM) MDA-MB-436 Cell Line (WST assay)
Procedure, shortened: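 IC50 was computed from WST-8-based cell counting in MDA-MB-436 cells, with absorbance read at 450 nm.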

MOLM-13 = assay: Cell growth inhibition, MOLM-13 leukemia cells (CellTiter-Glo); type: cell-based; conditions: Homo sapiens, MOLM-13, 96 h; 4 days; read-out: IC50 (nM) MOLM-13 Cell Line (CellTiter-Glo assay)
Procedure, shortened: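 MOLM-13 leukemia cells treated with compounds; viability read by CellTiter-Glo luminescence after 10-20 min reagent incubation at room temperature. IC50 derived from luminescent signal.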

COc1cc2c(cc1-c1c(C)noc1C)[nH]c1nc(C)nc(Nc3cc(C4CC4)nn3C3CC3)c12 [Cpd. No. 152, N-(1,3-Dicyclopropyl-1H-pyrazol-5-yl)-7-(3,5-dimethylisoxazol-4-yl)-6-methoxy-2-methyl-9H-pyrimido[4,5-b]indol-4-amine]
IC50 (recombinant BRD4 BD1): 10.6 nM
IC50 (recombinant BRD4 BD2): 5.6 nM
IC50 (MDA-MB-436): 34 nM
IC50 (MOLM-13): 19 nM

COc1cc2c(cc1-c1c(C)noc1C)[nH]c1nc(C)nc(Nc3cccc(C)n3)c12 [Cpd. No. 111, 7-(3,5-dimethylisoxazol-4-yl)-6-methoxy-2-methyl-N-(6-methylpyridin-2-yl)-9H-pyrimido[4,5-b]indol-4-amine]
IC50 (recombinant BRD4 BD1): 312 nM
IC50 (recombinant BRD4 BD2): 218 nM
IC50 (MDA-MB-436): 1100 nM
IC50 (MOLM-13): 7 nM

COc1cc2c(cc1-c1c(C)noc1C)[nH]c1nc(C)nc(Nc3c(C(C)C)nn(C)c3C(C)C)c12 [Cpd. No. 242, N-(3,5-diisopropyl-1-methyl-1H-pyrazol-4-yl)-7-(3,5-dimethylisoxazol-4-yl)-6-methoxy-2-methyl-9H-pyrimido[4,5-b]indol-4-amine]
IC50 (recombinant BRD4 BD1): 9 nM
IC50 (recombinant BRD4 BD2): 12 nM
IC50 (MDA-MB-436): 47 nM
IC50 (MOLM-13): 24 nM

COc1cc2c(cc1-c1c(C)noc1C)[nH]c1nc(C)nc(Nc3cn(C)c4ncccc34)c12 [Cpd. No. 227, 7-(3,5-dimethylisoxazol-4-yl)-6-methoxy-2-methyl-N-(1-methyl-1H-pyrrolo[2,3-b]pyridin-3-yl)-9H-pyrimido[4,5-b]indol-4-amine]
IC50 (recombinant BRD4 BD1): 14 nM
IC50 (recombinant BRD4 BD2): 22 nM
IC50 (MDA-MB-436): 62 nM
IC50 (MOLM-13): 31 nM

COc1cc2c(cc1-c1c(C)noc1C)[nH]c1nc(C)nc(Nc3ccnc4ccccc34)c12 [Cpd. No. 247, 7-(3,5-dimethylisoxazol-4-yl)-6-methoxy-2-methyl-N-(quinolin-4-yl)-9H-pyrimido[4,5-b]indol-4-amine]
IC50 (recombinant BRD4 BD1): 165 nM
IC50 (recombinant BRD4 BD2): 121 nM
IC50 (MDA-MB-436): 115 nM
IC50 (MOLM-13): 113 nM

COc1cc2c(cc1-c1c(C)noc1C)[nH]c1nc(C)nc(Nc3nn(C)cc3C)c12 [Cpd. No. 77, N-(1,4-dimethyl-1H-pyrazol-3-yl)-7-(3,5-dimethylisoxazol-4-yl)-6-methoxy-2-methyl-9H-pyrimido[4,5-b]indol-4-amine]
IC50 (recombinant BRD4 BD1): 64.4 nM
IC50 (recombinant BRD4 BD2): 168 nM
IC50 (MDA-MB-436): 351 nM
IC50 (MOLM-13): 242 nM

CCn1nc2c(c1Nc1nc(C)nc3[nH]c4cc(-c5c(C)noc5C)c(OC)cc4c13)CCCC2 [Cpd. No. 142, 7-(3,5-Dimethylisoxazol-4-yl)-N-(2-ethyl-4,5,6,7-tetrahydro-2H-indazol-3-yl)-6-methoxy-2-methyl-9H-pyrimido[4,5-b]indol-4-amine]
IC50 (recombinant BRD4 BD1): 4.5 nM
IC50 (recombinant BRD4 BD2): 0.5 nM
IC50 (MDA-MB-436): 7.3 nM
IC50 (MOLM-13): 1.1 nM

COc1cc2c(cc1-c1c(C)noc1C)[nH]c1nc(C)nc(Nc3c(C)cnn3C)c12 [Cpd. No. 76, N-(1,4-dimethyl-1H-pyrazol-5-yl)-7-(3,5-dimethylisoxazol-4-yl)-6-methoxy-2-methyl-9H-pyrimido[4,5-b]indol-4-amine]
IC50 (recombinant BRD4 BD1): 29.4 nM
IC50 (recombinant BRD4 BD2): 23.7 nM
IC50 (MDA-MB-436): 156 nM
IC50 (MOLM-13): 117 nM

COc1cc2c(cc1-c1c(C)noc1C)[nH]c1nc(C)nc(Nc3c(C)c(C)nn3C(C)C)c12 [Cpd. No. 81, 7-(3,5-dimethylisoxazol-4-yl)-N-(1-isopropyl-3,4-dimethyl-1H-pyrazol-5-yl)-6-methoxy-2-methyl-9H-pyrimido[4,5-b]indol-4-amine]
IC50 (recombinant BRD4 BD1): 5.1 nM
IC50 (recombinant BRD4 BD2): 19.6 nM
IC50 (MDA-MB-436): 67 nM
IC50 (MOLM-13): 22.9 nM

COc1cc2c(cc1-c1c(C)noc1C)[nH]c1nc(C)nc(Nc3cc(C4(C)CC4)nn3C)c12 [Cpd. No. 251, 7-(3,5-dimethylisoxazol-4-yl)-6-methoxy-2-methyl-N-(1-methyl-3-(1-methylcyclopropyl)-1H-pyrazol-5-yl)-9H-pyrimido[4,5-b]indol-4-amine]
IC50 (recombinant BRD4 BD1): 9 nM
IC50 (recombinant BRD4 BD2): 5.5 nM
IC50 (MDA-MB-436): 23 nM
IC50 (MOLM-13): 11 nM

COc1cc2c(cc1-c1c(C)noc1C)[nH]c1nc(C)nc(Nc3cc(C)nn3C)c12 [Cpd. No. 8, N-(1,3-Dimethyl-1H-pyrazol-5-yl)-7-(3,5-dimethylisoxazol-4-yl)-6-methoxy-2-methyl-9H-pyrimido[4,5-b]indol-4-amine]
IC50 (recombinant BRD4 BD1): 9.7 nM
IC50 (recombinant BRD4 BD2): 8 nM
IC50 (MDA-MB-436): 55.1 nM
IC50 (MOLM-13): 10.3 nM

COc1cc2c(cc1-c1c(C)noc1C)[nH]c1nc(C)nc(Nc3c4c(nn3C)CCCC4)c12 [Cpd. No. 125, 7-(3,5-Dimethylisoxazol-4-yl)-6-methoxy-2-methyl-N-(2-methyl-4,5,6,7-tetrahydro-2H-indazol-3-yl)-9H-pyrimido[4,5-b]indol-4-amine]
IC50 (recombinant BRD4 BD1): 4.4 nM
IC50 (recombinant BRD4 BD2): 2 nM
IC50 (MDA-MB-436): 17.5 nM
IC50 (MOLM-13): 11.3 nM

COc1cc2c(cc1-c1c(C)noc1C)[nH]c1nc(C)nc(Nc3n[nH]c(C)c3-c3ccccc3)c12 [Cpd. No. 5, 7-(3,5-Dimethylisoxazol-4-yl)-6-methoxy-2-methyl-N-(5-methyl-4-phenyl-1H-pyrazol-3-yl)-9H-pyrimido[4,5-b]indol-4-amine]
IC50 (recombinant BRD4 BD1): 340 nM
IC50 (recombinant BRD4 BD2): 381 nM
IC50 (MDA-MB-436): 719 nM
IC50 (MOLM-13): 475 nM

COc1cc2c(cc1-c1c(C)noc1C)[nH]c1nc(C)nc(Nc3cn(C)nc3C3CC3)c12 [Cpd. No. 195, N-(3-cyclopropyl-1-methyl-1H-pyrazol-4-yl)-7-(3,5-dimethylisoxazol-4-yl)-6-methoxy-2-methyl-9H-pyrimido[4,5-b]indol-4-amine]
IC50 (recombinant BRD4 BD1): 16.6 nM
IC50 (recombinant BRD4 BD2): 14.4 nM
IC50 (MDA-MB-436): 75.1 nM
IC50 (MOLM-13): 29.1 nM

COc1cc2c(cc1-c1c(C)noc1C)[nH]c1nc(C)nc(Nc3c(C)cnn3C(C)C)c12 [Cpd. No. 37, 7-(3,5-dimethylisoxazol-4-yl)-N-(1-isopropyl-4-methyl-1H-pyrazol-5-yl)-6-methoxy-2-methyl-9H-pyrimido[4,5-b]indol-4-amine]
IC50 (recombinant BRD4 BD1): 12.1 nM
IC50 (recombinant BRD4 BD2): 6.5 nM
IC50 (MDA-MB-436): 56.2 nM
IC50 (MOLM-13): 54.1 nM

COc1cc2c(cc1-c1c(C)noc1C)[nH]c1nc(C)nc(Nc3nn(C)c4cccc(F)c34)c12 [Cpd. No. 132, 7-(3,5-Dimethylisoxazol-4-yl)-N-(4-fluoro-1-methyl-1H-indazol-3-yl)-6-methoxy-2-methyl-9H-pyrimido[4,5-b]indol-4-amine]
IC50 (recombinant BRD4 BD1): 68.6 nM
IC50 (recombinant BRD4 BD2): 718 nM
IC50 (MDA-MB-436): 224 nM
IC50 (MOLM-13): 97.5 nM

COc1cc2c(cc1-c1c(C)noc1C)[nH]c1nc(C)nc(Nc3scnc3C(C)(C)C)c12 [Cpd. No. 33, 4-(tert-butyl)-N-(7-(3,5-dimethylisoxazol-4-yl)-6-methoxy-2-methyl-9H-pyrimido[4,5-b]indol-4-yl)thiazol-5-amine]
IC50 (recombinant BRD4 BD1): 24.5 nM
IC50 (recombinant BRD4 BD2): 21.5 nM
IC50 (MDA-MB-436): 303 nM
IC50 (MOLM-13): 2420 nM

COc1cc2c(cc1-c1c(C)noc1C)[nH]c1nc(C)nc(Nc3ccnn3C(C)(C)C)c12 [Cpd. No. 183, N-(1-(tert-butyl)-1H-pyrazol-5-yl)-7-(3,5-dimethylisoxazol-4-yl)-6-methoxy-2-methyl-9H-pyrimido[4,5-b]indol-4-amine]
IC50 (recombinant BRD4 BD1): 9.6 nM
IC50 (recombinant BRD4 BD2): 6.1 nM
IC50 (MDA-MB-436): 83.7 nM
IC50 (MOLM-13): 29.7 nM

CCn1cc(Nc2nc(C)nc3[nH]c4cc(-c5c(C)noc5C)c(OC)cc4c23)c(C(C)C)n1 [Cpd. No. 199, 7-(3,5-dimethylisoxazol-4-yl)-N-(1-ethyl-3-isopropyl-1H-pyrazol-4-yl)-6-methoxy-2-methyl-9H-pyrimido[4,5-b]indol-4-amine]
IC50 (recombinant BRD4 BD1): 13.3 nM
IC50 (recombinant BRD4 BD2): 14.5 nM
IC50 (MDA-MB-436): 67.9 nM
IC50 (MOLM-13): 30.5 nM

COc1cc2c(cc1-c1c(C)noc1C)[nH]c1nc(C)nc(Nc3ccnn3C(C)C)c12 [Cpd. No. 175, 7-(3,5-dimethylisoxazol-4-yl)-N-(1-isopropyl-1H-pyrazol-5-yl)-6-methoxy-2-methyl-9H-pyrimido[4,5-b]indol-4-amine]
IC50 (recombinant BRD4 BD1): 28.7 nM
IC50 (recombinant BRD4 BD2): 6.9 nM
IC50 (MDA-MB-436): 71 nM
IC50 (MOLM-13): 40.5 nM

COc1cc2c(cc1-c1c(C)noc1C)[nH]c1nc(C)nc(Nc3cnc4ccccn34)c12 [Cpd. No. 99, 7-(3,5-dimethylisoxazol-4-yl)-N-(imidazo[1,2-a]pyridin-3-yl)-6-methoxy-2-methyl-9H-pyrimido[4,5-b]indol-4-amine]
IC50 (recombinant BRD4 BD1): 47 nM
IC50 (recombinant BRD4 BD2): 87 nM
IC50 (MDA-MB-436): 307 nM
IC50 (MOLM-13): 206 nM

COc1cc2c(cc1-c1c(C)noc1C)[nH]c1nc(C)nc(Nc3cccc(C)c3)c12 [Cpd. No. 212, 7-(3,5-dimethylisoxazol-4-yl)-6-methoxy-2-methyl-N-m-tolyl-9H-pyrimido[4,5-b]indol-4-amine]
IC50 (recombinant BRD4 BD1): 18 nM
IC50 (recombinant BRD4 BD2): 8 nM
IC50 (MDA-MB-436): 112 nM
IC50 (MOLM-13): 103 nM

COc1cc2c(cc1-c1c(C)noc1C)[nH]c1nc(C)nc(Nc3cc(C)nn3-c3cccc(Cl)c3)c12 [Cpd. No. 7, N-(1-(3-Chlorophenyl)-3-methyl-1H-pyrazol-5-yl)-7-(3,5-dimethylisoxazol-4-yl)-6-methoxy-2-methyl-9H-pyrimido[4,5-b]indol-4-amine]
IC50 (recombinant BRD4 BD1): 365 nM
IC50 (recombinant BRD4 BD2): 198 nM
IC50 (MDA-MB-436): 142 nM
IC50 (MOLM-13): 56.3 nM
